# Source: PubChem BioAssay (NCI)
#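 Test compounds were applied to cells in 96-well plates for 48 hours at 5 doses. GI50 = concentration required for 50% inhibition of growth. Definition used: TGI = concentration required for complete inhibition of growth.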
# Key:
# Test in all cases: inhibition of tumour cell growth, NCI panel, 48 h
# [1] = tested on: 786-0 renal
# [2] = tested on: A498 renal
# [3] = tested on: A549 NSCLC
# [4] = tested on: ACHN renal
# [5] = tested on: BT-549 breast
# [6] = tested on: CAKI-1 renal
# [7] = tested on: CCRF-CEM leukemia
# [8] = tested on: COLO 205 colon
# [9] = tested on: DU-145 prostate
# [10] = tested on: EKVX NSCLC
# [11] = tested on: HCC-2998 colon
# [12] = tested on: HCT-116 colon
# [13] = tested on: HCT-15 colon
# [14] = tested on: HL-60(TB) leukemia
# [15] = tested on: HOP-62 NSCLC
# [16] = tested on: HOP-92 NSCLC
# [17] = tested on: HS 578T breast
# [18] = tested on: HT29 colon
# [19] = tested on: IGROV1 ovarian
# [20] = tested on: K-562 leukemia
# [21] = tested on: KM12 colon
# [22] = tested on: LOX IMVI melanoma
# [23] = tested on: M14 melanoma
# [24] = tested on: MALME-3M melanoma
# [25] = tested on: MCF7 breast
# [26] = tested on: MDA-MB-231 breast
# [27] = tested on: MDA-MB-435
# [28] = tested on: MOLT-4 leukemia
# [29] = tested on: NCI-H226 lung
# [30] = tested on: NCI-H23 lung
# [31] = tested on: NCI-H460 lung
# [32] = tested on: NCI-H522 lung
# [33] = tested on: NCI/ADR-RES ovarian
# [34] = tested on: OVCAR-3 ovarian
# [35] = tested on: OVCAR-4 ovarian
# [36] = tested on: OVCAR-5 ovarian
# [37] = tested on: OVCAR-8 ovarian
# [38] = tested on: PC-3 prostate
# [39] = tested on: RPMI-8226 leukemia
# [40] = tested on: RXF 393 renal
# [41] = tested on: SF-268 CNS
# [42] = tested on: SF-295 CNS
# [43] = tested on: SF-539 CNS
# [44] = tested on: SK-MEL-2 melanoma
# [45] = tested on: SK-MEL-28 melanoma
# [46] = tested on: SK-MEL-5 melanoma
# [47] = tested on: SK-OV-3 ovarian
# [48] = tested on: SN12C renal
# [49] = tested on: SNB-19 CNS
# [50] = tested on: SNB-75 CNS
# [51] = tested on: SR leukemia
# [52] = tested on: SW-620 colon
# [53] = tested on: T-47D breast
# [54] = tested on: TK-10 renal
# [55] = tested on: U251 CNS
# [56] = tested on: UACC-257 melanoma
# [57] = tested on: UACC-62 melanoma
# [58] = tested on: UO-31 renal
smiles,measurement,setting,value
CC1(C)N=C(N)N=C(N)N1c1cccc(CCCCc2ccccc2)c1,GI50,[1],518 nM
same,TGI,[1],16400 nM
same,GI50,[2],1750 nM
same,TGI,[2],15900 nM
same,GI50,[3],38.2 nM
same,TGI,[3],1350 nM
same,GI50,[4],3220 nM
same,TGI,[4],19700 nM
same,GI50,[5],901 nM
same,TGI,[5],3990 nM
same,GI50,[6],4150 nM
same,TGI,[6],22300 nM
same,GI50,[7],123 nM
same,TGI,[7],7040 nM
same,GI50,[8],448 nM
same,TGI,[8],2360 nM
same,GI50,[9],351 nM
same,TGI,[9],15000 nM
same,GI50,[10],870 nM
same,TGI,[10],20600 nM
same,GI50,[11],195 nM
same,TGI,[11],3820 nM
same,GI50,[12],50.1 nM
same,TGI,[12],17000 nM
same,GI50,[13],1730 nM
same,TGI,[13],21700 nM
same,GI50,[14],92.5 nM
same,TGI,[14],2520 nM
same,GI50,[15],556 nM
same,TGI,[15],22200 nM
same,GI50,[16],326 nM
same,TGI,[16],4440 nM
same,GI50,[17],4570 nM
same,TGI,[17],28500 nM
same,GI50,[18],54.3 nM
same,TGI,[18],11600 nM
same,GI50,[19],135 nM
same,TGI,[19],10100 nM
same,GI50,[20],68.8 nM
same,TGI,[20],13600 nM
same,GI50,[21],212 nM
same,TGI,[21],1860 nM
same,GI50,[22],62 nM
same,TGI,[22],14900 nM
same,GI50,[23],657 nM
same,TGI,[23],18600 nM
same,GI50,[24],2310 nM
same,TGI,[24],14800 nM
same,GI50,[25],312 nM
same,TGI,[25],10200 nM
same,GI50,[26],2470 nM
same,TGI,[26],21300 nM
same,GI50,[27],61.6 nM
same,TGI,[27],11900 nM
same,GI50,[28],319 nM
same,TGI,[28],8760 nM
same,GI50,[29],2350 nM
same,TGI,[29],24500 nM
same,GI50,[30],402 nM
same,TGI,[30],14100 nM
same,GI50,[31],49.3 nM
same,TGI,[31],11400 nM
same,GI50,[32],691 nM
same,TGI,[32],13700 nM
same,GI50,[33],> 73400 nM
same,TGI,[33],> 100000 nM
same,GI50,[34],350 nM
same,TGI,[34],8740 nM
same,GI50,[35],433 nM
same,TGI,[35],18800 nM
same,GI50,[36],11100 nM
same,TGI,[36],25900 nM
same,GI50,[37],262 nM
same,TGI,[37],16000 nM
same,GI50,[38],49.7 nM
same,TGI,[38],3090 nM
same,GI50,[39],289 nM
same,TGI,[39],2720 nM
same,GI50,[40],2280 nM
same,TGI,[40],17200 nM
same,GI50,[41],73.5 nM
same,TGI,[41],15000 nM
same,GI50,[42],229 nM
same,TGI,[42],5790 nM
same,GI50,[43],212 nM
same,TGI,[43],7390 nM
same,GI50,[44],1820 nM
same,TGI,[44],11400 nM
same,GI50,[45],894 nM
same,TGI,[45],15600 nM
same,GI50,[46],198 nM
same,TGI,[46],1360 nM
same,GI50,[47],1980 nM
same,TGI,[47],17000 nM
same,GI50,[48],427 nM
same,TGI,[48],12300 nM
same,GI50,[49],907 nM
same,TGI,[49],16600 nM
same,GI50,[50],3060 nM
same,TGI,[50],16300 nM
same,GI50,[51],188 nM
same,TGI,[51],2890 nM
same,GI50,[52],53.2 nM
same,TGI,[52],16400 nM
same,GI50,[53],1280 nM
same,TGI,[53],16200 nM
same,GI50,[54],704 nM
same,TGI,[54],20300 nM
same,GI50,[55],54.1 nM
same,TGI,[55],13500 nM
same,GI50,[56],780 nM
same,TGI,[56],12100 nM
same,GI50,[57],186 nM
same,TGI,[57],10900 nM
same,GI50,[58],10200 nM
same,TGI,[58],32000 nM
